Assay results taken from ChEMBL document CHEMBL3507680, “University of Dundee, Gates Library screen for HepG2 cell viability”.

Assay: Human HepG2 cell viability assay in 384 well format
Type: toxicity, cell-based
Design: dose 125 nL, time 70.5 hour; cytotoxicity at 70.5 h: concentration not given beside the values
Conditions: HepG2 cells, read-out: Inhibition

SMILES | cytotoxicity at 70.5 h [%]
Cc1noc(-c2cccnc2N2CCN(c3cnn(C)c3)CC2)n1 | -12
CC(C)c1cc(NCC2(CO)CCC2)ncn1 | 17.4
CC(C)n1nc(CN(C)C)c2c1CN(C(=O)CC1CC1)CC2 | -4.55
CNc1cc2c(nn1)CCN(C(=O)c1ccc(-n3cccn3)nc1)C2 | -14.4
COc1cccc(SCC(=O)N2CCC(N3CCCC(O)C3)CC2)c1 (configuration not stated) | -2.74
CN(CC(=O)N1CCCC1)Cc1nc2c(cnn2C)c(=O)[nH]1 | -10.6
CN(C)S(=O)(=O)Nc1ccc(Oc2ccc3c(c2)OCO3)cc1 | -5.35
c1ccc(-n2cncn2)c(CNCCn2cccn2)c1 | 10.2
Cc1noc(C(C)C)c1C(=O)NCCN1CCCCCC1=O | -19
Cc1oc(-c2nc(C#N)c(NC(C)(C)C)o2)cc1S(=O)(=O)N1CCCC1 | -8.41
Cc1csc(CNC(=O)NCCc2ccc3c(c2)OCCO3)n1 | 20.8
CC(CNC(=O)Nc1cn[nH]c1)N1CCCC1 (configuration not stated) | 2.24
O=C(O)c1c(-c2cncnc2)ncc2c1CCN(Cc1ccco1)C2 | 24.2
COCc1ccccc1NC(=O)c1ccoc1 | -15
CNS(=O)(=O)CC(=O)N(Cc1c(F)cccc1Cl)C1CC1 | -7.68
CCOc1ncccc1NC(=O)N1CCN(c2ccc(O)cc2)CC1 | 1.58
COCc1nc(C(=O)N2CCCC2c2cc(C)no2)cs1 (configuration not stated) | -7.8
Cc1cccc(CN2CCCC(O)(CNCCN3CCCCC3)C2=O)c1 (configuration not stated) | 2.73
Cn1ccnc1CN1CCCC(CO)(CCc2ccccc2)C1 (configuration not stated) | -8.1
O=C(Cc1c[nH]c2ncccc12)NCC(O)c1ccsc1 (configuration not stated) | 0.0548
Cc1nn(C)c(N2CCOCC2)c1CNC(C(N)=O)c1ccccc1 (configuration not stated) | 4.26
O=C(Cc1n[nH]c2ccccc12)N1CCCC1Cn1cccn1 (configuration not stated) | 0.964
COCC(C)N(C)C(=O)c1ccc2nncn2c1 (configuration not stated) | -2.4

SMILES | cytotoxicity at 70.5 h [%]
Cc1ccsc1CN1CC[C@H]2O[C@H](C(=O)N3CCCO3)CC[C@H]21 | -8.24
CC(=O)c1cccc(NC(=O)C2CN(S(=O)(=O)C3CC3)C2)c1 | -2.67
Cn1ccnc1CN1CCC(CCC(=O)Nc2ccccc2Cl)CC1 | -2.64
COCC(=O)N1CC(=O)c2sc(Nc3ccc(F)cc3F)nc2C1 | 0.281
CC(=O)N1CCn2c(-c3cccc(F)c3)cnc2C12CCNCC2 | -7.49
CC(c1cccc(-c2ccc(C(=O)O)cc2Cl)c1)N(C)C (configuration not stated) | -1.21
COc1ccccc1CN1CC[C@H]2[C@@H](C1)[C@H](c1ccsc1)CN2C(C)=O | 18.4
CC(C)c1cc(NC(=O)CN2CCc3cncnc3C2)on1 | -11.7
CC1CCCN(c2nccn3c(=O)[nH]nc23)C1 (configuration not stated) | -7.92
O=C(c1cc(C2CC2)[nH]n1)N1CCN(Cc2ccc3c(c2)OCO3)CC1 | -2.82
Cc1cc(N(C)CC2COc3ccccc3O2)nc(C)n1 (configuration not stated) | 9.74
Oc1nc(N2CCCC2)nc2nccc(-c3ccccn3)c12 | -22.4
Cc1cc(-c2cnn(CCNC(=O)Cc3ccccn3)c2C2CC2)on1 | -3.25
c1ccc(CN2CC[C@H]3CO[C@H](CNc4ncccn4)[C@H]3C2)nc1 | -0.901
OCCn1cc(CN2CCN(CCOc3ccc(F)cc3)CC2)cn1 | -2.54
Cc1cc(CNC(=O)N2CCN(C(C)c3cccnc3)CC2)c(C)o1 (configuration not stated) | -0.922
Cc1cccc(C)c1Nc1noc2c1CN(C(=O)c1ccn(C)n1)CC2 | 46.4
CC(=O)N1CCN(C(=O)NCc2ccc(Cl)s2)CC1 | 20.2
CN(C)C(=O)N1CCN(C(=O)C(c2ccccc2F)N(C)C)CC1 (configuration not stated) | -4.32
CC(=O)N1CCN(C(=O)CCCc2nnc(-c3ccccc3)o2)CC1 | -2.32
CSC1(CNC(=O)NC(C)c2ccc(F)c(F)c2)CCOCC1 (configuration not stated) | -1.76
CC(=O)Cn1c(C)cc(=O)c2cc(F)ccc21 | 1.19
Cc1nn(C(C)C)c(C)c1CN1CCN(C2CCCCC2)C(=O)C1 | -3.48

SMILES | cytotoxicity at 70.5 h [%]
Cc1ccccc1-n1cc(CN(C)C[C@@H]2CCCN3CCCC[C@H]23)cn1 | -12.2
Cc1cc(C)n(CC(C)CNC(=O)NCc2csc(C)n2)n1 (configuration not stated) | 42.1
CCC(=O)N1CCC2(CC1)CC(CC(N)=O)c1ccc(F)cc12 (configuration not stated) | -7.49
Cc1cc(-c2nccs2)nc(C2CCN(Cc3cccs3)CC2)n1 | -5.42
N#Cc1ccnc(N2CCN(CC(O)c3ccc(F)cc3)CC2)c1 (configuration not stated) | -0.587
Cc1cc(C[C@@H]2COC[C@@H]2NC(=O)CN2CCc3ccccc3C2)on1 | 8.76
CC(CN1CCC2(CC1)N=C(N(C)C)NC2=O)c1ccccc1 (configuration not stated) | -12.1
Cn1cccc1C(=O)N1CCC2(CC1)COC(COc1ccccn1)C2 (configuration not stated) | -6.63
Cc1ccccc1CS(=O)(=O)CC(=O)NC1CCCCNC1=O (configuration not stated) | -11.3
Cc1cc(NC(=O)N2CCCC2C(=O)NC2CC2)c2ncccc2c1 (configuration not stated) | -98
COCC1CC2(CCN(c3cccc(C)n3)CC2)CN1C(C)C (configuration not stated) | -8.05
Cc1ccccc1N1CC2(CCN(S(=O)(=O)c3ccccc3)C2)CC1=O (configuration not stated) | -7.42
Cc1cccc(CN2CCN3C[C@H](Oc4cccnc4)C[C@H]3C2)n1 | -1.7
c1ccc2[nH]c(C3CCN(Cc4nnc(C5CC5)o4)CC3)cc2c1 | -12.6
COCCN1C(=O)CC[C@]12CC[C@@H](NCc1nccs1)CC2 | -6.2
COc1cccc(-c2n[nH]cc2-c2nc(CN3CCCC3)no2)c1 | 1.58
CCS(=O)(=O)CCNC(=O)[C@@]12CNC[C@@H]1CN(C1CCCC1)C2 | -0.64
CCN(CCC(F)(F)F)C(=O)Nc1cccc(N2CCOCC2)c1 | -7.71
CCN1CC2(CC1=O)CN(Cc1ccncc1)CCN(C(=O)C(C)C)C2 (configuration not stated) | 28.2
COC(=O)CNC(=O)c1cn(Cc2ccccc2F)nn1 | -5.61
COc1cccc(CNC(Cc2cccs2)c2nc(C)c(C)s2)c1OC (configuration not stated) | -1.23
NC(=O)c1cccc(CNC(=O)NCCOc2ccc(F)c(F)c2)c1 | -2.9
Cc1nn(C)c(C)c1NC(=O)CN1CCOC(CN(C)C)C1 (configuration not stated) | 5.23

SMILES | cytotoxicity at 70.5 h [%]
CN(Cc1nc(-c2cccs2)no1)Cc1nc2c(s1)CCCC2 | -3.38
O=C(N[C@H]1CCCC[C@@H]1O)c1ccc2nc(-c3ccccc3)[nH]c2c1 | 9.22
CN(Cc1ccc(C(=O)NCC2COCCO2)c(=O)[nH]1)CC(C)(C)C (configuration not stated) | 6.27
CNC(=O)C1CN(C(=O)c2ccccc2)Cc2cn(C)nc21 (configuration not stated) | 26.9
Cc1nonc1CC(=O)N1CCC2(CCCN(C3CCOCC3)C2=O)C1 (configuration not stated) | -5.27
COCCN1CCc2c(CNC(=O)c3nccn3C)cncc2C1 | 3.83
Nc1nc2c(c(N3CCCC(OCc4ccccn4)C3)n1)CCNCC2 (configuration not stated) | -6.98
Cc1ccccc1CN(CCO)Cc1ncc[nH]1 | -12.3
COc1ccc(F)c(NCc2cnn(C3CCS(=O)(=O)C3)c2)c1 (configuration not stated) | 8.41
CCN(Cc1cnn(C)c1)S(=O)(=O)c1ccc(NC(C)=O)cc1 | 9.84
CC(C)NC(=O)c1nc2c(s1)CCCN2c1ccccc1 | 5.99
Cc1nc(CNC(=O)c2cc(COc3ccccc3)[nH]n2)n[nH]1 | -5.91
Cc1csc(CCNC(=O)Nc2cc(C(F)(F)F)c[nH]c2=O)n1 | -1.34
Cn1cc(CCCN2CCCC(c3cc(C(F)(F)F)[nH]n3)C2)cn1 (configuration not stated) | 6.94
COc1ncccc1C1CC(=O)NCc2nc3sccn3c21 (configuration not stated) | -12.8
Cn1cnc(S(=O)(=O)N2CC3(CCN(c4ccccc4)C3)C2)c1 | 20.3
O=C(CC1CC1)N1CCC(O)(CN2CCN(c3ccccc3)CC2)C1 (configuration not stated) | 5.49
COc1ncccc1CNC(=O)Nc1cc(C)nn1C | -7.29
CN(C)C(=O)N1C[C@@H](C(=O)NCc2ccco2)C[C@H]2OCC[C@H]21 | -4.06
COCCN1CCCC1Cn1nc(C)cc1C (configuration not stated) | 8.46
CN(Cc1nc(C(F)(F)F)cs1)C(=O)CCc1ccccn1 | -1.82
CN(C)CCCN1CC2(CCN(C(=O)C3(C)CCCCO3)CC2)OC1=O (configuration not stated) | 17.7
CC(C)C(=O)NS(=O)(=O)c1ccc2c(c1)N(C)CCC2 | -8.04

SMILES | cytotoxicity at 70.5 h [%]
CN(Cc1nc(CS(C)(=O)=O)no1)c1ccccc1 | -12.6
c1nc2c(c(C3CC3)n1)CCN(CC1CCOC1)CC2 (configuration not stated) | -13.3
COc1ccc(OCCN(C)CCCn2cnc3c(N)ncnc32)cc1 | -5.85
Cc1ccc(C(=O)N[C@H]2CN(CCO)C[C@@H]2C2CC2)cc1Cl | 1.11
O=C(CC1CCCO1)NCCCC(=O)Nc1ccc(Cl)cc1 (configuration not stated) | -7.07
CCS(=O)(=O)N1CCC2(CC1)c1ncc(-c3cccnc3)n1CCN2C | -5.3
COc1ccc(Cn2nnnc2SCC2CCCN(C)C2)cc1 (configuration not stated) | -8.49
Cc1ccc(C(=O)N2CCN(Cc3ccccc3)CC2)n1C | 21
CCn1c(Cn2cncn2)nnc1C1CCN(Cc2cccnc2)CC1 | 9.57
CC(CCc1ncnn1Cc1cccc(Cl)c1)N1CCCC1 (configuration not stated) | -9.23
CN(Cc1cncnc1)[C@@H]1CN(Cc2ccco2)C[C@@H]2CCCO[C@@H]21 | -14.6
O=C(N[C@@H]1CCC[C@@H](N2CCOCC2)[C@@H]1O)c1cnn2cccnc12 | -1.42
CC(=O)N1CCCN(C(=O)NCCOc2ccc3c(c2)CCC3)CC1 | -4.61
O=C(NCCc1c[nH]cn1)C1CCCN(Cc2ccco2)C1 (configuration not stated) | -1.6
O=C(NCC1(N2CCOCC2)CCSC1)Nc1cn[nH]c1 (configuration not stated) | -10.2
CC(C)C(=O)N1CCc2c(CN(C)Cc3ccco3)cncc2C1 | -9.73
CC(=O)c1cc(CN2C[C@H]3CC[C@@H]2CN(S(C)(=O)=O)C3)cs1 | 13.8
O=C(O)[C@@H]1CN(CC(=O)N2CCCCC2)C[C@H]1c1ccc(F)cc1 | -2.52
Cc1ccc(C(=O)N2CCCn3nc(CCC(=O)O)cc3C2)cc1Cl | -2.03
O=C(CN1CCCS(=O)(=O)CC1)NCc1ccccc1F | -8.4
